Laboratory results reported in patent US20230414575A1, “MK2 ACTIVATING COMPOUNDS FOR USE IN TREATING VASCULAR LEAK AND ENDOTHELIAL BARRIER DISORDERS” (Akttyva Therapeutics, Inc., priority 2020, published 2023).
Counter-ions that a name gives are not always drawn.

How the values were obtained:
MK2 [1] = biological target: T1, MK2 (Rattus norvegicus, UniProt Q80ZF4); assay: ELISA MK2 cell-based activity assay (phospho-HSP-27), RMVEC cells; details: compound 20 μM, 30 minutes, 37° C.; for Average Response HSP27: phospho-HSP27 ELISA
T1 construct: endogenous in cells; host or cells: rat microvascular endothelial cells (RMVEC)
Procedure: (§1) The MK2 activator candidates, identified using the artificial intelligence (AI)-assisted docking approach, were tested in activity assays for lead selection against the MK2 target. MK2 activation was assessed using (a) a cell-based assay using rat microvascular endothelial cells (RMVEC) and (b) human cancer skin fibroblast cells (Malme-3M). In both assays, an Enzyme-linked ImmunoSorbent Assay (ELISA) technique was used to measure (HSP-27) phosphorylation (DYC2314-2, R&D Systems). Both cell lines were grown to confluency in a 96-well tissue culture plate and treated at 37° C. for 30 minutes with the test compounds at concentrations of 20 μM. The cells were subsequently lysed with a lysis solution containing 0.5% Triton X-100 and anti-proteolysis agents. The resulting lysates were then loaded onto ELISA plates coated with anti-rat phospho-HSP27. After incubation and washing, the plates were treated with an horseradish peroxidase (HRP)-conjugated anti-phospho-HSP27 secondary antibody and then measured for chemiluminescence. Higher activity compounds, acting on MK2, induced higher levels of HSP-27 phosphorylation, as measured by the ELISA.

MK2 [2] = biological target: T2, MK2 (Homo sapiens, UniProt P49137); assay: ELISA MK2 cell-based activity assay (phospho-HSP-27), Malme-3M cells; details: for Ratio to Control / Pho-HSP27: Malme-3M cells, compound 20 μM, 30 minutes, 37° C.; for Pho-HSP27: phospho-HSP27 ELISA
T2 construct: endogenous in cells; host or cells: Malme-3M
Procedure: as §1

T1 sequence (Q80ZF4 1-386): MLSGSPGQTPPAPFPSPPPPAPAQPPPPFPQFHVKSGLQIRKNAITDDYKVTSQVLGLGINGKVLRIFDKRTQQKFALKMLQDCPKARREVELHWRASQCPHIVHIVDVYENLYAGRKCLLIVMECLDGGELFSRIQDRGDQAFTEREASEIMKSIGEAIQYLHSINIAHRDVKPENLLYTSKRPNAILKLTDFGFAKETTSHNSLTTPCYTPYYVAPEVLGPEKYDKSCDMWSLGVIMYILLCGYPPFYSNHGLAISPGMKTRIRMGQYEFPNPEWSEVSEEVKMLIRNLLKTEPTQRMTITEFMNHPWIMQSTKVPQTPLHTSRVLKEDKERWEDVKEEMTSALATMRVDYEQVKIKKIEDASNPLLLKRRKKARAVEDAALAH
T2 sequence (P49137 whole entry): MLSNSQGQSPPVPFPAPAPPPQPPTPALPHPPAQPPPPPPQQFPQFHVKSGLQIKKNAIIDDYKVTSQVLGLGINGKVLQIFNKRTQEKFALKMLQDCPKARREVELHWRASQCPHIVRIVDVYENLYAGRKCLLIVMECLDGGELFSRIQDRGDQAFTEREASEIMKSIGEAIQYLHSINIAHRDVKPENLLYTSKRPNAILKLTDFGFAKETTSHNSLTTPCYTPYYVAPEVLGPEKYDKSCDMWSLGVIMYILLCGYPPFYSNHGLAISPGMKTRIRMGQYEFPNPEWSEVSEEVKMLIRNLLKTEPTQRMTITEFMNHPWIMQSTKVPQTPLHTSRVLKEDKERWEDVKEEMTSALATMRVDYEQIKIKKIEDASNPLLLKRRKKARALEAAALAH

Row | Ratio Compound/control (MK2 [1]) | Average Response HSP27 (MK2 [1]) | Ratio to Control (MK2 [2]) | Pho-HSP27 (MK2 [2]) | response in phospho-HSP27 ELISA, overall ranking (MK2 [2]; overall statement on compounds tested at 20 μM (Malme-3M and RMVEC cells)) | Molecule
1 | 1.1 | 10.4 pg/mL | – | – | – | Cl.Cl.OCCN1CCN(CCC=C2c3ccccc3Sc3ccc(C(F)(F)F)cc32)CC1 (mixture of isomers) [Flupenthixol dihydrochloride]
2 | 0.9 | 6.3 pg/mL | – | – | – | c1cc(OCCN2CCCCC2)cc(-c2n[nH]c3ccc(-c4nc[nH]n4)cc23)c1 [CC-401 Hydrochloride]
3 | 0.7 | 2.7 pg/mL | – | – | – | Cc1ccccc1-c1cc(N2CCN(C)CC2)ncc1N(C)C(=O)C(C)(C)c1cc(C(F)(F)F)cc(C(F)(F)F)c1 [Compound 9, Netupitant]
4 | 1.1 | 19.4 pg/mL | 1.2 | 26.9 pg/mL | – | COc1ccc(-c2ccc3ncc4c(c3c2)n(-c2ccc(N3CCNCC3)c(C(F)(F)F)c2)c(=O)n4C)cn1 [Compound 14, Bgt-226]
5 | 1.1 | 4.3 pg/mL | – | – | – | Cc1nc2n(c(=O)c1CCN1CCC(c3noc4cc(F)ccc34)CC1)CCCC2O (centres unmarked) [Compound 20, Paliperidone]
6 | – | – | 32.0 | 720.7 pg/mL | most robust response | O=C1[C@H]2CCCC[C@H]2C(=O)N1CCCCN1CCN(c2nsc3ccccc23)CC1 [Compound 23, Perospirone]
7 | – | – | 1.6 | 35.4 pg/mL | – | O=C1Cc2cc(CCN3CCN(c4nsc5ccccc45)CC3)c(Cl)cc2N1 [Compound 24, Ziprasidone]
8 | 0.9 | 6.2 pg/mL | – | – | – | COc1cc2ncnc(Oc3cccc(NC(=O)Nc4cc(C(C)(C)C(F)(F)F)on4)c3)c2cc1OC [Compound 27, Cep-32496]
9 | 0.2 | 0.9 pg/mL | – | – | – | CCn1cc(-c2ccnc3[nH]c(-c4cccc(CN(C)C)c4)cc23)c(-c2ccc(NC(=O)N(C)C)cc2)n1 [Compound 28, Gsk-1070916]
10 | 1.8 | 39.0 pg/mL | 1.0 | 22.1 pg/mL | – | C[C@@H](Oc1cc(-n2cnc3ccc(CN4CCN(C)CC4)cc32)sc1C(N)=O)c1ccccc1C(F)(F)F [Compound 29, Gsk-461364]
11 | 0.3 | 0.0 pg/mL | – | – | – | Cn1cc(-c2ccc(F)c(C(F)(F)F)c2)nc1C1CCN(c2ncnc3[nH]ncc23)CC1 [Compound 30, Ly-2584702]
12 | 1.6 | 20.4 pg/mL | 0.9 | 21.2 pg/mL | – | Cc1csc(-c2nnc(Nc3ccc(Oc4ncccc4-c4ccnc(N)n4)cc3)c3ccccc23)c1 [Compound 33, Amg- 900]
13 | 0.9 | 21.4 pg/mL | 0.7 | 15.7 pg/mL | – | C=CCn1c(=O)c2cnc(Nc3ccc(N4CCN(C)CC4)cc3)nc2n1-c1cccc(C(C)(C)O)n1 [Compound 36, Azd-1775]
14 | 1.6 | 34.0 pg/mL | 1.6 | 36.8 pg/mL | – | FC(F)(F)c1ccc(/C=C/c2nc(COc3ccc(CCCCn4ccnn4)cc3)co2)cc1 [Compound 37, Mubritinib]
15 | 1.0 | 17.8 pg/mL | 0.9 | 21.2 pg/mL | – | Nc1ccccc1NC(=O)c1ccc(CNc2nccc(-c3cccnc3)n2)cc1 [Compound 38, Mocetinostat]
16 | 1.0 | 4.8 pg/mL | – | – | – | Cc1nc(Nc2[nH]nc3c2CN(C(=O)N[C@H](CN(C)C)c2ccccc2)C3(C)C)c2sccc2n1 [Compound 39, Pf-03758309]
17 | 1.1 | 25.4 pg/mL | 1.7 | 38.7 pg/mL | – | Cc1nc2ccc(CN(C)c3ccc(C(=O)N[C@@H](CCC(=O)O)C(=O)O)s3)cc2c(=O)[nH]1 [Compound 41, Raltitrexed]
18 | 0.4 | 5.7 pg/mL | – | – | – | CC(C)c1cc(CNc2nc(Nc3cc(C4CC4)[nH]n3)cc(N3CCN(C)CC3)n2)on1 [Compound 43, Xl-228]
19 | 0.9 | 5.9 pg/mL | – | – | – | CC(=O)N1CCN(CCOc2ccc(C3CCN(C4=Nn5c(nnc5C(F)(F)F)CC4)CC3)cc2)CC1 [Compound 44, Azd3514]

Row | Ratio Compound/control (MK2 [1]) | Average Response HSP27 (MK2 [1]) | Ratio to Control (MK2 [2]) | Pho-HSP27 (MK2 [2]) | response in phospho-HSP27 ELISA, overall ranking (MK2 [2]; overall statement on compounds tested at 20 μM (Malme-3M and RMVEC cells)) | Molecule
20 | 0.2 | -0.2 pg/mL | – | – | – | CCS(=O)(=O)c1cccc(-c2cc(C(=O)NC3CCN(C)CC3)c(C)c3[nH]c4ncc(C)cc4c23)c1 [Compound 46, Tak-901]
21 | 0.9 | 8.5 pg/mL | – | – | – | Cn1c(Nc2ccc(C(F)(F)F)cc2)nc2cc(Oc3ccnc(-c4ncc(C(F)(F)F)[nH]4)c3)ccc21 [Compound 47, Chir-265]
22 | 1.3 | 12.1 pg/mL | – | – | – | Cc1c(NC(=O)OC[C@@H]2COCCN2)cn2ncnc(Nc3ccc4c(cnn4Cc4cccc(F)c4)c3)c12 [Compound 49, Ac-480]
23 | 1.0 | 21.7 pg/mL | 0.9 | 20.8 pg/mL | – | Cc1cn(-c2cc(NC(=O)c3ccc(C)c(Nc4nccc(-c5cnccn5)n4)c3)cc(C(F)(F)F)c2)cn1 [Compound 52, Radotinib]
24 | 1.3 | 9.0 pg/mL | – | – | – | CCN1CCN(Cc2ccc(NC(=O)Nc3ccc(Oc4cc(NC)ncn4)cc3)cc2C(F)(F)F)CC1 [Compound 55, Ast-487]
25 | 0.3 | 4.6 pg/mL | – | – | – | Cc1cc(Nc2cc(N3CCN(C)CC3)nc(/C=C/c3ccccc3)n2)n[nH]1 [Compound 56, Enmd-2076]
26 | 1.3 | 8.8 pg/mL | – | – | – | CNCc1ccc(C)c(NC(=O)c2ccc(Nc3nc(-c4ccccc4)c4ccccc4n3)cc2)c1 [Compound 57, Bms - 833923]
27 | 1.3 | 5.2 pg/mL | – | – | – | Cc1oncc1C(=O)Nc1ccc(C(F)(F)F)cc1 [Compound 72, Leflunomide]
28 | 1.0 | 6.6 pg/mL | – | – | – | CCc1cc(/C(C)=N/OCc2ccc(C3CCCCC3)c(C(F)(F)F)c2)ccc1CN1CC(C(=O)O)C1 [Compound 76, Siponimod]
29 | 0.9 | 4.2 pg/mL | – | – | – | COCCOc1ccc(N2CCN(CCn3ncc4c3nc(N)n3nc(-c5ccco5)nc43)CC2)cc1 [Compound 106, Preladenant]
30 | – | – | 0.8 | 17.3 pg/mL | – | CC(C)Nc1cccnc1N1CCN(C(=O)c2cc3cc(NS(C)(=O)=O)ccc3[nH]2)CC1 [Compound 108, Delavirdine]
31 | 0.1 | 1.2 pg/mL | – | – | – | OCC(O)CN1CCN(c2ccccc2)CC1 (centres unmarked) [Dropropizine]
32 | 1.3 | 11.7 pg/mL | – | – | – | O=C(Nc1cccc(C2=NCCN2)c1)Nc1cccc(C2=NCCN2)c1 [Imidocarb dipropionate]
33 | 1.3 | 11.7 pg/mL | – | – | – | N=C(N)c1ccc2cc(OC(=O)c3ccc(N=C(N)N)cc3)ccc2c1 [Nafamostat Mesylate]
34 | 2.2 | 43.2 pg/mL | – | – | – | O=C1[C@H]2CCCC[C@H]2C(=O)N1CCCCN1CCN(c2nsc3ccccc23)CC1 [Perospirone hydrochloride]
35 | 1.5 | 32.3 pg/mL | – | – | – | O=C1Cc2cc(CCN3CCN(c4nsc5ccccc45)CC3)c(Cl)cc2N1 [Ziprasidone HCl]
36 | 0.7 | 11.8 pg/mL | – | – | – | Cl.Cl.Cl.O[C@@H](COc1cccc2ncccc12)CN1CCN([C@@H]2c3ccccc3[C@@H]3[C@H](c4ccccc42)C3(F)F)CC1 [Zosuquidar (LY335979) 3HCl]
37 | 1.1 | 18.4 pg/mL | – | – | – | Delavirdine (mesylate)
38 | 2.7 | 11.7 pg/mL | – | – | – | MK2-AP (batch#2): presumably the positively charged MK2-activating peptide YARAAARQARAHPRNPARRTPGTRRGAPAA (SEQ ID NO: 7) (MK2 peptide fragment)

Row | Molecule | Ratio Compound/control (MK2 [1]) | Average Response HSP27 (MK2 [1]) | Ratio to Control (MK2 [2]) | Pho-HSP27 (MK2 [2]) | response in phospho-HSP27 ELISA, overall ranking (MK2 [2]; overall statement on compounds tested at 20 μM (Malme-3M and RMVEC cells))
39 | Cc1cn(-c2cc(NC(=O)c3ccc(C)c(Nc4nccc(-c5cccnc5)n4)c3)cc(C(F)(F)F)c2)cn1 [Compound 51, Nilotinib] | 1.1 | 18.2 pg/mL | 0.6 | 12.7 pg/mL | –
40 | NC(=O)[C@@H](CCC(F)(F)F)N(Cc1ccc(-c2ncon2)cc1F)S(=O)(=O)c1ccc(Cl)cc1 [Compound 115, Avagacestat] | 0.8 | 5.7 pg/mL | – | – | –
41 | Cc1cc(N2CCN([C@@H]3CN[C@H](C(=O)N4CCSC4)C3)CC2)n(-c2ccccc2)n1 [Teneligliptin hydrobromide] | 0.8 | 4.0 pg/mL | – | – | –
